Experiments:
[1] = Plasma total and free testosterone after sublingual androgen intake in two male patients; conditions: blood plasma 15 minutes after sublingual intake, 5 mg T, or 5 mg T + 5 mg DHT; for Free T: measured, not calculated; for concentration at 15 min: human, plasma, other: sublingual, 5 mg, Total T
Protocol: (§1) The first example concerns two male heterosexual patients with sexual problems (erection problems and reduced sexual arousal). […] This prompted two alternative forms of treatment. The first treatment involved taking 5 mg sublingual testosterone (in a solution consisting of alcohol, denaturalized water, testosterone and cyclodextrins) followed 2.5 hours later by taking Viagra (sildenafil 50 mg). The second treatment consisted of simultaneously taking 5 mg sublingual testosterone and 5 mg sublingual dihydrotestosterone (DHT) (in a solution consisting of alcohol, denaturalized water, DHT and cyclodextrins), followed after 2.5 hours by taking Viagra (50 mg). The testosterone and DHT solutions were prepared by a pharmacist on the request of a general practitioner. On both treatment days, patients were asked to engage in sexual activity between 1 and 1.5 hours after taking Viagra. […] Patients were also asked to answer some questions about their sexual arousal immediately before and within an hour after sexual activity.
The table below describes the effects of the different treatments on ‘total testosterone’ and ‘free testosterone (i.e. measured, not calculated)’ for both patients: […]

[2] = sublingually with cyclodextrins; women about 0.1-2 mg, men about 0.5-20 mg; cited from earlier work
[3] = tested on: male heterosexual patients with sexual problems (erection problems and reduced sexual arousal); assay: Self-rated sexual arousal (scale 1 to 10) before and during sexual activity, sublingual androgen(s) followed by Viagra; format: in vivo, human; conditions: history of the two male patients before the alternative treatments
Protocol: as §1

[4] = cited from earlier work

Compound: C[C@]12CC[C@H]3[C@@H](CCC4=CC(=O)CC[C@@]43C)[C@@H]1CC[C@@H]2O [T, 17-β-hydroxyandrost-4-en-3-one]
- Free T ([1]; Patient 1): 440 pml/L
- Free T ([1]; Patient 2): 1030 pml/L
- concentration at 15 min ([1]; Patient 1): 28.7 nM
- concentration at 15 min ([1]; Patient 2): 43.9 nM
- time to pharmacological peak in testosterone [2]: about 15 minutes

Compound: CCCc1nn(C)c2c(=O)[nH]c(-c3cc(S(=O)(=O)N4CCN(C)CC4)ccc3OCC)nc12 [Viagra, sildenafil]
- effect of the usual treatments on the sexual problems [3]: little or no effect

Compound: CC[C@H](C)[C@@H]1NC(=O)[C@H](Cc2ccc(O)cc2)NC(=O)[C@@H](N)CSSC[C@@H](C(=O)N2CCC[C@H]2C(=O)N[C@@H](CC(C)C)C(=O)NCC(N)=O)NC(=O)[C@H](CC(N)=O)NC(=O)[C@H](CCC(N)=O)NC1=O [oxytocin]
- time of behavioral and neural effects after administration ([4]; dosages between 20-50 IE): 15 to 90 min
- T-max of oxytocin levels in the blood circulation ([4]; intranasal administration): approximately 15 minutes
- return of oxytocin levels to baseline ([4]; intranasal administration): approximately 90 minutes
